Test results taken from the supplement of paper PMC10331698.
± gives the standard deviation of the averaged measurements.

Tests used:
Test in all cases: level (log10 ratio to DMSO vehicle control); higher = higher biomarker level / cell amount than vehicle control
Settings in all cases: in DMSO
[1] = compound: O=S(=O)(F)C(F)(F)C(F)(F)C(F)(F)C(F)(F)C(F)(F)C(F)(F)C(F)(F)C(F)(F)F [Perfluorooctanesulfonyl fluoride]
Experimental: (§1)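 BioMAP Diversity Plus panel of 12 human primary cell co-culture systems (3C, 4H, LPS, SAg, BT, BF4T, BE3C, CASM3C, HDF3CGF, KF3CT, MyoF, Mphg). Compounds were added 1 h before stimulation and left for 24 h (MyoF 48 h; BT 72 h for soluble read-outs or 6 d for IgG). Biomarkers were read by ELISA, cytotoxicity by SRB, PBMC viability and proliferation by Alamar Blue. Each well value was divided by the mean of 8 DMSO control wells on the same plate and log10 transformed; duplicate blinded samples were tested at 4 concentrations.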

[2] = compound: FC(F)(F)C(F)(F)CNCC(F)(F)C(F)(F)F [Bis(1H,1H-perfluoropropyl)amine]
Experimental: as §1

Hexafluoroamylene glycol = compound: OCC(F)(F)C(F)(F)C(F)(F)CO [Hexafluoroamylene glycol]
Experimental: as §1

[3] = compound: O=S(=O)(Cl)C(F)(F)C(F)(F)C(F)(F)C(F)(F)C(F)(F)C(F)(F)C(F)(F)C(F)(F)F [Perfluoro-1-octanesulfonyl chloride]
Experimental: as §1

[4] = compound: O=C(O)C=CC(F)(C(F)(F)F)C(F)(F)F [3-(Perfluoroisopropyl)-2-propenoic acid]
Experimental: as §1

[5] = compound: O=S(=O)(O)C(F)(F)C(F)(F)C(F)(F)C(F)(F)C(F)(F)C(F)(F)C(F)(F)C(F)(F)C(F)(F)C(F)(F)F [Sodium perfluorodecanesulfonate]
Experimental: as §1

Row | Test System | level (log10) ([1]; 6700 nM) | level (log10) ([1]; 20000 nM) | level (log10) ([1]; 60000 nM) | level (log10) ([2]; 6700 nM) | level (log10) ([2]; 20000 nM) | level (log10) ([2]; 60000 nM) | level (log10) (Hexafluoroamylene glycol; 6700 nM) | level (log10) (Hexafluoroamylene glycol; 20000 nM) | level (log10) (Hexafluoroamylene glycol; 60000 nM) | level (log10) ([3]; 6700 nM) | level (log10) ([3]; 20000 nM) | level (log10) ([3]; 60000 nM) | level (log10) ([4]; 6700 nM) | level (log10) ([4]; 20000 nM) | level (log10) ([4]; 60000 nM) | level (log10) ([5]; 1500 nM) | level (log10) ([5]; 4400 nM) | level (log10) ([5]; 13000 nM) | level (log10) ([5]; 40000 nM)
1 | HDF3CGF:MMP-1 | 0.023 ± 0.03 | 0.029 ± 0.024 | 0.006 ± 0.051 | 0.001 ± 0.0028 | -0.0145 ± 0.0092 | 0.0075 ± 0.0092 | 0.004 ± 0.0071 | -0.0015 ± 0.04 | -0.022 ± 0.064 | -0.0435 ± 0.019 | -0.017 ± 0.0099 | 0.016 ± 0.028 | 0.0005 ± 0.012 | 0.008 ± 0.011 | 0.0005 ± 0.0064 | -0.0125 ± 0.0092 | -0.0145 ± 0.0078 | -0.007 ± 0.024 | 0.027 ± 0.024
2 | HDF3CGF:PAI-I | 0.0235 ± 0.12 | 0.035 ± 0.013 | 0.101 ± 0.033 | -0.001 ± 0.0071 | -0.0105 ± 0.013 | 0 ± 0.033 | 0.0045 ± 0.0035 | 0.006 ± 0.038 | -0.0145 ± 0.0021 | 0.0185 ± 0.0021 | 0.0435 ± 0.0064 | 0.0255 ± 0.032 | -0.0085 ± 0.018 | -0.0215 ± 0.015 | -0.0005 ± 0.032 | 0.0815 ± 0.042 | 0.159 ± 0.0028 | 0.129 ± 0.041 | 0.147 ± 0.038
3 | HDF3CGF:Proliferation 72hr | -0.0015 ± 0.057 | 0.0385 ± 0.013 | 0.03 ± 0.037 | 0.002 ± 0.041 | -0.008 | 0.028 ± 0.038 | -0.0185 ± 0.021 | 0.0055 ± 0.025 | -0.008 ± 0.037 | 0.126 ± 0.04 | 0.155 ± 0.1 | -0.0105 ± 0.0035 | -0.033 ± 0.083 | 0.0165 ± 0.086 | 0.04 ± 0.073 | 0.098 ± 0.023 | 0.23 ± 0.037 | 0.316 ± 0.013 | 0.301 ± 0.021
4 | HDF3CGF:SRB | 0.017 ± 0.0014 | 0.0365 ± 0.025 | 0.043 ± 0.034 | -0.0275 ± 0.0078 | 0.008 ± 0.0014 | 0.0145 ± 0.05 | 0.0095 ± 0.052 | 0.0215 ± 0.06 | 0.02 ± 0.061 | 0.015 ± 0.021 | -0.0095 ± 0.005 | -0.0345 ± 0.035 | -0.014 ± 0.055 | 0.0205 ± 0.011 | -0.0055 ± 0.022 | 0.014 ± 0.0099 | -0.0075 ± 0.035 | 0.104 ± 0.0092 | 0.198
5 | HDF3CGF:TIMP-1 | -0.0065 ± 0.00071 | 0.002 ± 0.0042 | -0.007 ± 0.0085 | 0 ± 0.0099 | -0.0525 ± 0.049 | 0.011 ± 0.0071 | -0.0155 ± 0.05 | -0.0145 ± 0.06 | -0.017 ± 0.1 | 0.016 ± 0.038 | 0.053 ± 0.0057 | 0.139 ± 0.016 | -0.006 ± 0.014 | 0.0105 ± 0.015 | 0.007 ± 0.0057 | -0.0355 ± 0.04 | 0.0065 ± 0.0035 | 0.0265 ± 0.042 | 0.156 ± 0.016
6 | KF3CT:CCL2/MCP-1 | -0.0055 ± 0.0035 | -0.0305 ± 0.033 | 0.001 ± 0.052 | -0.0015 ± 0.05 | 0.001 ± 0.048 | -0.012 ± 0.042 | 0.0125 ± 0.005 | 0.012 ± 0.0085 | 0.0085 ± 0.021 | -0.031 ± 0.025 | -0.0315 ± 0.019 | -0.0485 ± 0.016 | -0.012 ± 0.017 | 0 ± 0.027 | 0.0105 ± 0.053 | 0.037 ± 0.0099 | -0.0155 ± 0.042 | -0.0485 ± 0.029 | -0.023 ± 0.038
7 | KF3CT:CD54/ICAM-1 | 0.0055 ± 0.029 | 0.003 ± 0.0028 | 0.009 ± 0.0028 | -0.011 ± 0.011 | -0.008 ± 0.0085 | 0.012 ± 0.018 | 0.0035 ± 0.021 | -0.0155 ± 0.012 | -0.013 ± 0.0099 | -0.0055 ± 0.0021 | -0.008 ± 0.0028 | 0.0325 ± 0.016 | 0.0075 ± 0.013 | 0.011 ± 0.018 | -0.0025 ± 0.029 | 0.0035 ± 0.013 | 0.018 ± 0.023 | 0.08 ± 0.013 | 0.09
8 | KF3CT:CXCL8/IL-8 | 0.001 ± 0.028 | 0.0005 ± 0.025 | 0.007 ± 0.0071 | -0.0005 ± 0.005 | -0.0065 ± 0.0092 | 0.0115 ± 0.015 | 0.001 ± 0.044 | -0.0015 ± 0.028 | 0.004 ± 0.02 | 0.006 ± 0.0042 | 0.0095 ± 0.016 | 0.0615 ± 0.025 | 0.001 ± 0.013 | 0.0085 ± 0.028 | 0.018 ± 0.0014 | 0 ± 0.044 | -0.0125 ± 0.0064 | -0.0175 ± 0.012 | -0.0105 ± 0.005
9 | KF3CT:CXCL9/MIG | 0.007 ± 0.0057 | -0.007 ± 0.0085 | 0.006 ± 0.0085 | 0.0085 ± 0.016 | -0.001 ± 0.0028 | 0.007 ± 0.011 | 0.0155 ± 0.00071 | -0.003 ± 0.0014 | 0.014 ± 0.011 | -0.0045 ± 0.005 | -0.002 ± 0.0057 | 0.005 ± 0.0042 | -0.0005 ± 0.012 | 0.0005 ± 0.011 | 0 ± 0.0028 | 0.0005 ± 0.0064 | -0.0045 ± 0.0021 | 0.0015 ± 0.0092 | 0 ± 0.0042
10 | KF3CT:CXCL10/IP-10 | -0.0015 ± 0.0035 | -0.0105 ± 0.00071 | -0.011 ± 0.014 | -0.0045 ± 0.0078 | -0.0025 ± 0.0035 | 0.0085 ± 0.00071 | 0.0015 ± 0.015 | -0.008 ± 0.0099 | -0.0035 ± 0.0092 | -0.0165 ± 0.00071 | -0.0455 ± 0.00071 | -0.16 ± 0.0099 | 0.0105 ± 0.035 | 0.0075 ± 0.032 | 0.0125 ± 0.023 | 0 ± 0.023 | -0.021 ± 0.027 | -0.015 ± 0.025 | -0.0225 ± 0.0078
11 | KF3CT:IL-1alpha | -0.0055 ± 0.026 | 0.007 ± 0.013 | -0.0145 ± 0.026 | 0.0045 ± 0.022 | -0.013 ± 0.0014 | 0.0005 ± 0.046 | -0.014 ± 0.031 | -0.018 ± 0.0099 | -0.017 ± 0.038 | -0.013 ± 0.0085 | -0.03 ± 0.02 | -0.055 ± 0.0014 | -0.0025 ± 0.0064 | 0.0025 ± 0.0092 | 0.001 ± 0.017 | 0.0125 ± 0.018 | -0.0295 ± 0.005 | -0.0545 ± 0.0035 | -0.045 ± 0.02
12 | KF3CT:MMP-9 | -0.012 ± 0.035 | -0.0185 ± 0.032 | -0.0075 ± 0.035 | -0.024 ± 0.0071 | -0.013 ± 0.035 | 0.001 ± 0.042 | -0.0145 ± 0.005 | -0.011 ± 0.025 | -0.0155 ± 0.0035 | -0.0225 ± 0.028 | -0.0155 ± 0.013 | -0.193 ± 0.026 | -0.0175 ± 0.016 | 0.006 ± 0.0071 | 0.018 ± 0.014 | -0.01 ± 0.0085 | -0.0325 ± 0.0078 | -0.0735 ± 0.012 | -0.139 ± 0.036
13 | KF3CT:SRB | 0.0025 ± 0.0021 | 0.0015 ± 0.005 | 0.0045 ± 0.00071 | -0.007 ± 0.0057 | -0.007 ± 0.0014 | 0.0095 ± 0.011 | -0.0045 ± 0.00071 | -0.005 ± 0.0057 | 0.0025 ± 0.0078 | -0.0095 ± 0.011 | -0.0315 ± 0.0078 | -0.026 ± 0.0028 | -0.005 | -0.009 ± 0.0014 | 0.002 ± 0.013 | 0.006 ± 0.011 | 0 ± 0.0042 | -0.003 ± 0.0028 | 0.0095 ± 0.016
